Results as given in US11155550B2, “Histone deacetylase inhibitors and methods of use thereof” (Reaction Biology Corp., priority 2018, dated 2021).
“And” between values parts separate entries of the source, which are not always exact repeats. Identical values can stand only once. Like-named read-outs stand apart in the source and are kept apart here. Values belong to the molecule of their own block, whether it stands above or below them.

What was measured:
Human HDAC10 = target: T1, Human HDAC10 (Homo sapiens, UniProt Q969S8); assay: Biochemical HDAC enzymatic assay, HDAC10; conditions: Table 2; incubation time 10 min
T1 construct: Human HDAC10 (a.a. 1-481); GST tag (N); His tag (C); made in house; host or cells: baculovirus expression system
T1 sequence (Q969S8 1-481): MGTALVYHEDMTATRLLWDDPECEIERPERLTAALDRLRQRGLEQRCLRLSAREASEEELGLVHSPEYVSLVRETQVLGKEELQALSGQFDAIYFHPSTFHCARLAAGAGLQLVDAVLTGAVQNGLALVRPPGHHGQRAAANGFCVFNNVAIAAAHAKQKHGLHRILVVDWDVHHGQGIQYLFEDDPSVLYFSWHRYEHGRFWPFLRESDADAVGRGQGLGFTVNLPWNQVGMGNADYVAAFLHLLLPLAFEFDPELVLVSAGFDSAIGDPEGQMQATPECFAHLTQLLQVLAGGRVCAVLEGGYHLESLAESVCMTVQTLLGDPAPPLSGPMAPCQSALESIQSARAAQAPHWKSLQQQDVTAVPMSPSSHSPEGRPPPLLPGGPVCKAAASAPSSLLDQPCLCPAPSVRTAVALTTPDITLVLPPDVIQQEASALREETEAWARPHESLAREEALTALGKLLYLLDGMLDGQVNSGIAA
Method: Incubation time for HDAC1/2 is 120 min, and 10 min for other HDACs.
Human HDAC10 (a.a. 1-481), GenBank Accession No. NM_032019 with a N-terminal GST tag and a C-terminal His tag, MW=78 kDa, was expressed in a baculovirus expression system.
• I. Compound handling: Testing compounds were dissolved in 100% DMSO to a specific concentration. The serial dilution was conducted by epMotion 5070 in DMSO. • II. HDAC reaction buffer: 50 mM Tris-HCl, pH8.0, 137 mM NaCl, 2.7 mM KCl, and 1 mM MgCl2, Added fresh: 1 mg/ml BSA, 1% DMSO. • III. […] Delivered 2× Substrate Mixture (Fluorogenic HDAC Substrate and co-factor ([…] of Nicotinamide adenine dinucleotide (NAD^+) in all Sirt assay) in all reaction wells to initiate the reaction. Spin and shake. • d. Incubated for 1-2 hr. at 30° C. with seal. • e. Added Developer with Trichostatin A (or TMP269 or NAD^+) to stop the reaction and to generate fluorescent color. • f. Fluorescence was read (excitatory, 360; emission, 460) using the EnVision Multilabel Plate Reader (Perkin Elmer) • g. Endpoint reading was taken for analysis after the development reaches plateau. • V. Data Analysis: The percentages of enzyme activity (relative to DMSO controls) and IC50 values were calculated using the GraphPad Prism 4 program based on a sigmoidal dose-response equation. […]

[1] = Mouse plasma PK after IV administration; format: in vivo; conditions: for AUC(0-inf): read-out: AUCINF_obs (converted); for MRT inf: read-out: MRTINF_obs
Method: (§1) In vivo PK (pharmacokinetics) studies were run at Scripps Florida DMPK Core facility. Mouse plasma PK data was obtained using Compound Example 4 (N-(2-amino-5-(thiophen-2-yl)phenyl)-6-(8-methyl-2-oxo-1-oxa-3,8-diazaspiro[4.5]decan-3-yl)nicotinamide)
(§2) Dose: 1 mg/kg intravenous (IV) and 7 mg/kg oral dosage (PO)
(§3) Formulation: 0.1 mg/mL IV and 1 mg/mL PO solution in 10/10/80 DMSO/Tween80/Water
(§4) Mice Info: Male C57 Bl/6J

[2] = Mouse plasma PK after oral administration; format: in vivo
Method: as §1, §2, §3, §4

[3] = Brain exposure experiments in mice; format: in vivo, mouse; conditions: 1 hour after exposure
Method: Brain exposure experiments were performed wherein mice were exposed to Compound Example 4 at an IV dosage of 1 mg/kg (Table 5).

[4] = 1 mg/kg IV, individual mice, 1 mg/kg
[5] = male, C57 Bl/6J, mouse, plasma, iv, 1 mg/kg, 1 mg/kg IV, Average
[6] = male, C57 Bl/6J, mouse, plasma, iv, 1 mg/kg, 1 mg/kg IV, individual mice
[7] = mouse plasma, 7 mg/kg PO, Average
[8] = mouse plasma, 7 mg/kg PO, individual mice, 7 mg/kg
[9] = IV 1 mg/kg, individual mice (7, 8, 9), 1 mg/kg

IC50 (Human HDAC10): > 10 µM
Structure (SMILES): CN(C)C(=O)N1CCC2(CC1)c1ccccc1C(=O)N2Cc1ccc(C(=O)NO)cc1 [Compound Example 11, 2-(4-(hydroxycarbamoyl)benzyl)-N,N-dimethyl-3-oxospiro[isoindoline-1,4′-piperidine]-1′-carboxamide]

IC50 (Human HDAC10): > 10 µM
Structure (SMILES): O=C(NO)c1ccc(CN2C(=O)c3ccccc3C23CCN(C2CC2)CC3)cc1 [Compound Example 12, 4-((1′-cyclopropyl-3-oxospiro[isoindoline-1,4′-piperidin]-2-yl)methyl)-N-hydroxybenzamide]

AUC (% Extrap) ([1]; 1 mg/kg IV, Average): 1.08%
Cl_obs ([1]; 1 mg/kg IV, Average): 4.93 mL/min/kg
Vss_obs ([1]; 1 mg/kg IV, Average): 0.54 L/kg
T1/2 ([1]; 1 mg/kg IV, individual mice (Mouse-1 to Mouse-3), 1 mg/kg): 1.33 h and 1.28 h
AUC (% Extrap) [1, 4]: 0.30% and 1.04% and 1.89%
AUC last [1, 4]: 6.33 µM·h and 7.92 µM·h
AUCINF_obs [1, 4]: 177722 ng·min/mL and 224191 ng·min/mL
AUClast [1, 4]: 175879 ng·min/mL and 219951 ng·min/mL
Cmax [1, 4]: 2490 ng/mL and 2040 ng/mL
MRTINF_obs [1, 4]: 1.74 h and 1.97 h
Vss_obs [1, 4]: 0.50 L/kg and 0.59 L/kg and 0.53 L/kg
Cmax ([1]; 1 mg/kg IV, individual mice, 1 mg/kg, read-out: Cmax): 5.38 µM and 4.41 µM
clearance (in words) ([1]; IV administration): low clearance
volume (in words) ([1]; IV administration): low volume
Tmax ([1]; male, C57 Bl/6J, 1 mg/kg IV, individual mice): 4.8 min
AUC ([1]; male, C57 Bl/6J, 1 mg/kg, IV administration): ~7.3 µM·h
AUC(0-t) [1, 5]: 3380 ng·h/mL and 7.3 µM·h
AUC(0-inf) [1, 5]: 3420 ng·h/mL
Cmax ([1]; male, C57 Bl/6J, mouse, plasma, iv, 1 mg/kg, 1 mg/kg IV, Average, read-out: Cmax): 2030 ng/mL and 4.38 µM
MRT inf [1, 5]: 1.82 h
half-life ([1]; male, C57 Bl/6J, mouse, plasma, iv, 1 mg/kg, 1 mg/kg IV, Average, read-out: T1/2 (converted)): 1.16 h
AUC(0-t) [1, 6]: 3540 ng·h/mL and 7.64 µM·h
half-life ([1]; male, C57 Bl/6J, mouse, plasma, iv, 1 mg/kg, 1 mg/kg IV, individual mice (Mouse-1 to Mouse-3), read-out: T1/2 (converted)): 0.86 h
AUC(0-inf) [1, 6]: 3550 ng·h/mL
Cmax ([1]; male, C57 Bl/6J, mouse, plasma, iv, 1 mg/kg, 1 mg/kg IV, individual mice, read-out: Cmax): 1560 ng/mL and 3.37 µM
MRT inf [1, 6]: 1.76 h
half-life ([1]; male, C57 Bl/6J, mouse, plasma, iv, 1 mg/kg, IV administration, read-out: half-life (T1/2) (converted)): 1.2 h
AUC ([2]; male, C57 Bl/6J, 7 mg/kg, mouse plasma, oral dosing, read-out: AUC (area under curve)): ~16 µM·h
AUC(0-t) ([2]; male, C57 Bl/6J, mouse, plasma, po, 7 mg/kg, mouse plasma, 7 mg/kg PO, Average): 7380 ng·h/mL and 15.9 µM·h
AUC(0-inf) ([2]; male, C57 Bl/6J, mouse, plasma, po, 7 mg/kg, mouse plasma, 7 mg/kg PO, Average, read-out: AUCINF_obs (converted)): 7860 ng·h/mL
Cmax ([2]; male, C57 Bl/6J, mouse, plasma, po, 7 mg/kg, mouse plasma, 7 mg/kg PO, Average, read-out: Cmax): 2490 ng/mL and 5.39 µM
half-life ([2]; male, C57 Bl/6J, mouse, plasma, po, 7 mg/kg, mouse plasma, 7 mg/kg PO, Average, read-out: T1/2 (converted)): 1.9 h
half-life ([2]; male, C57 Bl/6J, mouse, plasma, po, 7 mg/kg, mouse plasma, 7 mg/kg PO, individual mice (Mouse-1 to Mouse-3), read-out: T1/2 (converted)): 1.65 h
Cmax ([2]; male, C57 Bl/6J, mouse, plasma, po, 7 mg/kg, mouse plasma, 7 mg/kg PO, individual mice, read-out: Cmax): 3200 ng/mL and 6.91 µM
half-life ([2]; male, C57 Bl/6J, mouse, plasma, po, 7 mg/kg, mouse plasma, oral dosing, read-out: half-life (converted)): 1.9 h
bioavailability ([2]; male, C57 Bl/6J, plasma, 7 mg/kg, mouse, oral dosing, read-out: bioavailability (% F)): 31%
bioavailability ([2]; male, C57 Bl/6J, plasma, mouse, 7 mg/kg PO vs 1 mg/kg IV, Average, read-out: % F): 31%
Tmax ([2]; male, C57 Bl/6J, mouse plasma, 7 mg/kg PO, individual mice): 1 h
AUC (% Extrap) [2, 7]: 6.54%
Cl_obs [2, 7]: 16.34 mL/min/kg
T1/2 ([2]; mouse plasma, 7 mg/kg PO, individual mice (Mouse-1 to Mouse-3), 7 mg/kg): 2.25 h and 1.78 h
AUC (% Extrap) [2, 8]: 5.20% and 9.47% and 4.97%
Cmax [2, 8]: 1930 ng/mL and 2350 ng/mL
Cmax ([2]; mouse plasma, 7 mg/kg PO, individual mice, 7 mg/kg, read-out: Cmax): 4.17 µM and 5.08 µM
brain penetration (in words) ([3]; IV 1 mg/kg): very low brain penetration
Brain concentration [3, 9]: 61.9 ng/mL and 0 ng/mL and 73 ng/mL
concentration at 1 h ([3]; IV 1 mg/kg, individual mice (7, 8, 9), 1 mg/kg, read-out: Brain concentration): 0.13 µM and 0.00 µM and 0.16 µM
concentration at 1 h ([3]; mouse, brain, iv, 1 mg/kg, Average, read-out: Brain concentration): 67.5 ng/mL and 150 nM
concentration at 1 h ([3]; mouse, plasma, iv, 1 mg/kg, Average, read-out: Plasma concentration): 1440 ng/mL and 3.1 µM
concentration at 1 h ([3]; mouse, plasma, iv, 1 mg/kg, individual mice (7, 8, 9), read-out: Plasma concentration): 1660 ng/mL and 3.59 µM
Structure (SMILES): CN1CCC2(CC1)CN(c1ccc(C(=O)Nc3cc(-c4cccs4)ccc3N)cn1)C(=O)O2 [Example 4, N-(2-amino-5-(thiophen-2-yl)phenyl)-6-(8-methyl-2-oxo-1-oxa-3,8-diazaspiro[4.5]decan-3-yl)nicotinamide]
Cl_obs [1, 4]: 4.70 mL/min/kg and 5.63 mL/min/kg and 4.46 mL/min/kg
AUCINF_obs [2, 8]: 690882 ng·min/mL and 335315 ng·min/mL and 388640 ng·min/mL
AUClast [2, 8]: 654948 min*ng/mL and 303573 min*ng/mL and 369340 min*ng/mL and 23.58 μM.hr and 10.93 μM.hr and 13.30 μM.hr
Cl_obs [2, 8]: 10.13 mL/min/kg and 20.88 mL/min/kg and 18.01 mL/min/kg
Plasma concentration [3, 9]: 1030 ng/mL and 2.22 μM and 1620 ng/mL and 3.50 μM
